Reference: a melting point compilation (Tetko et al.)

melting point | Compound
220 °C | CCC1=CCCC1=NNc1ccc([N+](=O)[O-])cc1[N+](=O)[O-]
64 °C | COc1cccc(Br)c1O
240 to 243 °C | NC(=O)c1cc(O)c(O)c(O)c1
78 °C | COc1ccccc1NC(=O)c1cnc(C(C)(C)C)cn1
302 °C | NC(C(=O)O)c1ccccc1 (centres undefined)
-108 °C | CC#CC(C)CC (centres undefined)
122 °C | CN(CCOc1ccc(CC2SC(=O)NC2=O)cc1)c1ccccn1 (centres undefined)
177 to 178 °C | Sc1nnc(-c2cccc3ccccc23)n1Cc1ccco1
85 to 86 °C | Cc1cc2nsnc2cc1Cl
220 °C | O=[N+]([O-])c1ccc(-c2nnc3n2NC(c2ccc(Cl)cc2)S3)cc1 (centres undefined)
34 °C | Oc1ccc(S)cc1
191 °C | Nc1cccc2cc(O)ccc12
119 °C | O=C1NN(c2ccccc2)C(=O)C1(Br)Br
101 to 103 °C | Cc1nc(-c2ccccc2)ncc1C=O
203 °C | COc1cc2ccc(N(C)S(=O)(=O)c3ccc(C)cc3)cc2[nH]1
124 to 125 °C | OCc1ccc(-c2cccs2)nc1
72 to 73 °C | CN1C(=O)CSC1=S
150 °C | CCOC(=O)c1nn(-c2ccc(C)cc2)c(=N)c(C#N)c1C
51 to 53 °C | N#Cc1ccc(N2CCCCC2)cc1
229 °C | Nc1ncn(C2OC(CO)C(O)C2O)c(=O)n1 (centres undefined)
63 to 64 °C | Cc1cc(C)c(N=C=S)c(C)c1
19 to 21 °C | O=S(=O)(n1ccnc1)C(F)(F)F
62 °C | Cc1ccccc1NC=O

melting point | Compound
256 °C | COc1cc(C=CC(=O)O)cc(Br)c1O
159 to 161 °C | Nc1n[nH]c(N)c1Cc1ccc(F)cc1
150 °C | Nc1nc(-c2ccccc2)cs1
310 to 315 °C | CC(=O)N(C(C)=O)c1cc(C=CC(=O)O)ccc1C=CC(=O)O
108 °C | CC(N)C(O)c1cccc(O)c1 (centres undefined)
179 °C | CC1(C)OC(=O)C(=Cc2ccc(-c3cccc([N+](=O)[O-])c3)o2)C(=O)O1
87 °C | Cc1cc(Cl)nnc1Cl
200 °C | O=C(O)c1ccc(-c2ccco2)nc1
235 °C | CCOC(=O)Nc1ccc2cc3ccc4c(c3nc2c1)COC(=O)N4
80 °C | Cc1ccc(C(c2ccc(C)o2)c2ccccc2[N+](=O)[O-])o1
10 °C | Nc1cc(C(F)(F)F)ccc1Cl
198 to 200 °C | NC(=S)c1ccc(-c2ccccn2)s1
165 °C | Nc1cc(N)c(C(=O)CI)cc1C(=O)CI
199 °C | CCOc1ccc2[nH]c(=S)sc2c1
-70 °C | CCC(C)(Br)CBr (centres undefined)
-74.4 °C | CC(C)=CCCC=C(C)C
266 °C | COc1cc(O)c2c(=O)c3cc(O)ccc3oc2c1
38 °C | NCCCCCCCCCN
96 to 97 °C | O=[N+]([O-])c1c(Cl)c(Cl)c(Cl)c(Cl)c1NCc1ccccc1
127 to 128 °C | O=C(O)c1cccc(OC(F)(F)C(F)F)c1
-3 °C | C#CC(C)O (centres undefined)
187 °C | c1ccc(Cc2nc3ccccc3[nH]2)cc1

Second part, the molecule before the results:

Compound | melting point
CN1CCC23c4c5ccc(OCCN6CCOCC6)c4OC2C(O)C=CC3C1C5 (centres undefined) | 91 °C
O=C1CCCC(=O)N1 | 156 °C
O=C(O)CNC(CO)(CO)CO | 187 °C
C=C(C)CNC(=S)NC | 60 to 64 °C
C=CCOCC(CC)(CO)CO | -10 °C
O=Cc1ccccc1OC1CCOCC1 | 67 to 70 °C
c1ccc(Cc2nc3ccccc3nc2Cc2ccccc2)cc1 | 118 °C
O=C1N(c2ccccc2)C(=O)[C@@]2(Cl)C(c3ccccc3)(c3ccccc3)C[C@@]12Cl | 160 °C
O=C(O)COc1ccc(OCC(=O)O)cc1 | 248 to 251 °C
Cc1ccc(C(c2ccc(C)o2)c2cc(Br)cc(Br)c2O)o1 | 88 °C
O=C(OCc1ccccc1)c1cccnc1 | 22 °C
O=C(O)c1cscc1Sc1ccc(Cl)cc1 | 195 to 198 °C
ON=Cc1ccc2c(Br)cccc2c1 | 178 °C
O=S(=O)(c1ccccc1)C1CC1(Cl)Cl (centres undefined) | 83 to 88 °C
O=C(c1ccc(Cl)cc1)c1noc(-c2ccc(Cl)cc2)c1S(=O)(=O)c1ccccc1 | 147 °C
COc1cc(I)c(OC)cc1Cl | 115 to 116 °C
NC(=O)/C(=N\Nc1ccc(O)cc1)c1nc2ccccc2s1 | 160 °C
Cc1c(C(=O)O)cc(-c2ccccc2)n1-c1ccccc1 | 226 to 227 °C
CC(C)(O)c1ccc(-c2ccccc2)cc1 | 91.5 °C
OCC1OC(OC2C(CO)OC(O)C(O)C2O)C(O)C(O)C1O (centres undefined) | 256 to 258 °C
CCOC(=O)C(=O)C=P(c1ccccc1)(c1ccccc1)c1ccccc1 | 176 °C

Compound | melting point
C=CSC=C | 20 °C
CCCC(C)C(=O)Nc1ccc(C)c(Cl)c1 (centres undefined) | 85.5 °C
COc1ccc(-c2ccc(S(=O)(=O)NCCC(=O)O)cc2)cc1 | 190 °C
CC(=NNC(=O)c1ccncc1)c1ccco1 | 199 °C
Cc1ccc(C=Nc2n[nH]c(N=Cc3ccc(C)cc3)c2Cc2ccc(Cl)cc2)cc1 | 248 to 250 °C
COc1cc(C2OCC3C(c4ccc(OC(C)=O)c(OC)c4)OCC23)ccc1OC(C)=O (centres undefined) | 166 °C
CC(=O)C1CCC2C3CCC4CC(N)CCC4(C)C3CCC12C (centres undefined) | 126 °C
Nc1ccc(N=O)c(N)n1 | 260 to 266 °C
COc1cc(CCC(=O)O)ccc1O | 90 °C
CN(c1c(F)c(F)c(F)c(F)c1F)N(O)O | 39.5 °C
c1ccc(SCc2ccc(CN3CCOCC3)cc2)cc1 | 219 °C
O=[N+]([O-])c1ccc(NN=C(Cc2ccccc2)C(Cc2ccccc2)=NNc2ccc([N+](=O)[O-])cc2)cc1 | 276 °C
O=C(OCCC(OC(=O)c1ccccc1)c1ccccc1)c1ccccc1 (centres undefined) | 51 °C
O=C1CCCC(=O)O1 | 56.3 °C
O=C(O)C1CSC(c2cccnc2)=N1 (centres undefined) | 180 to 181 °C
Oc1n[nH]c2nc3ccccc3nc12 | 304 to 305 °C
CCOC(=O)C(C#N)=CNc1ccccc1Cl | 165 to 167 °C
N#Cc1sccc1Br | 49 °C
Cc1c(F)c(F)c(CBr)c(F)c1F | 42 °C
C[C@]12CC[C@H]3[C@@H](CCC4CC(=O)CC[C@@]43C)[C@@H]1CC[C@H]2OC=O (some centres undefined) | 124 °C
O=[N+]([O-])c1c(N2CCCCC2)cc(Cl)c2nonc12 | 159 to 161 °C

Compound | melting point
CCc1cc(C#N)ccc1N | 63 °C
N#CCSc1ccc(F)cc1 | 34 °C
OC1Cc2cccc3cccc1c23 (centres undefined) | 148 °C
O=S(=O)(c1ccccc1)N(F)S(=O)(=O)c1ccccc1 | 110 to 115 °C
CC(C)c1cccc(C(C)C)c1N | -45 °C
O=C(O)c1ccc(F)c(F)c1 | 122 to 125 °C
CC1(c2ccccc2)CC(C(=O)c2cc3ccccc3o2)C1 (centres undefined) | 156 to 157 °C
Nc1cc(Cl)c(C(F)(F)F)cc1[N+](=O)[O-] | 113 to 114 °C
Cc1ccc(NN=C2C(=O)NC(=S)NC2=O)cc1 | 305 °C
Cc1cc(C(=O)O)cc(C)c1[N+](=O)[O-] | 224 °C
CCOC(=O)C(C)(C)C1(O)CCC2(C)C(CCC3C2CCC2(C)C(OCc4ccccc4)CCC32)C1 (centres undefined) | 147 °C
O=S(=O)(O)NC1CCCCC1 | 170 °C
Cc1ccc(C=O)c(O)c1 | 60.5 °C
CCOP(=S)(OCC)Oc1ccc([N+](=O)[O-])cc1 | 6.1 °C
Cc1c(Cc2c(C)n(C)n(-c3ccccc3)c2=O)c(=O)n(-c2ccccc2)n1C | 155 °C
O=C(N=NC(=O)OCc1ccccc1)OCc1ccccc1 | 44 to 52 °C
c1ccc(C2(N3CCCCC3)CCCCC2)cc1 | 46.5 °C
O=C(O)C1C2CCC(O2)C1C(=O)O (centres undefined) | 144 °C
COc1ccccc1/C=C/C(=O)O | 185 °C
CCCCCCCCCCCCCCCC(=O)c1ccccc1 | 59 °C
CCc1ccc(C(=O)NN)cc1 | 84 to 87 °C

Compound | melting point
S=C=Nc1ccc(Cl)c(Cl)c1Cl | 69.5 °C
O=C(C=Cc1ccsc1)c1ccccc1 | 88 °C
c1ccc(-c2ccncn2)cc1 | 56 °C
COc1ccc(C2Nn3c(nnc3-c3ccccc3OC)S2)cc1 (centres undefined) | 203 to 204 °C
c1ccc(Oc2nc(Oc3ccccc3)nc(Oc3ccccc3)n2)cc1 | 234 °C
CC(C)N(C(=O)COc1nnc(C(F)(F)F)s1)c1ccc(F)cc1 | 78 °C
CC(=O)NNC(N)=S | 165 to 170 °C
NC(=O)NN=CC[N+](=O)[O-] | 360 °C
COc1cc(C(C)(C)C)c(O)c(C(C)(C)C)c1 | 105 °C
Cc1cc(Br)c(N)c(Br)c1 | 74 °C
CC(=O)NC1C(Oc2c[nH]c3ccc(Br)c(Cl)c23)OC(CO)C(O)C1O (centres undefined) | 246 to 248 °C
NC(CC(=O)O)c1ccc(Cl)cc1 (centres undefined) | 243 to 245 °C
CCC1CC(O)CC(C)(C)N1O (centres undefined) | 69 to 73 °C
O=C(CCCl)c1ccc(F)cc1 | 47.5 °C
c1ccc2c(c1)CC1c3ccccc3CCN1C2 (centres undefined) | 85 °C
O=C(O)C=Cc1cc([N+](=O)[O-])ccc1Sc1ccc(Cl)cc1 | 212 to 215 °C
Cc1ccc(-c2csc(/C(C#N)=N\Nc3ccc(O)cc3)n2)cc1 | 252 °C
O=C(O)CCNC(=O)CCl | 91 to 92 °C
CCCCCCCCCCCCCCCCCCOCCOCCOCCOCCOCCOCCOCCOCCOCCOCCOCCOCCOCCOCCOCCOCCOCCOCCOCCOCCO | 44 to 46 °C
COc1cc(N)c2c(c1N)C(=O)c1ccccc1C2=O | 242 °C
O=C1C=CC(=O)C1 | 37 °C
